Measurements published in PubChem BioAssay (NCI).
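Five concentrations, 48 hours, 96-well plates. Abbreviation: GI50, concentration required for 50% inhibition of growth. TGI: concentration producing complete growth inhibition.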

How the values were obtained:
Test in all cases: NCI anticancer screen, dose series, 48 h
[1] = tested on: 786-0 renal
[2] = tested on: A498 renal
[3] = tested on: A549 NSCLC
[4] = tested on: ACHN renal
[5] = tested on: BT-549 breast
[6] = tested on: CAKI-1 renal
[7] = tested on: CCRF-CEM leukemia
[8] = tested on: COLO 205 colon
[9] = tested on: DU-145 prostate
[10] = tested on: EKVX NSCLC
[11] = tested on: HCC-2998 colon
[12] = tested on: HCT-116 colon
[13] = tested on: HCT-15 colon
[14] = tested on: HL-60(TB) leukemia
[15] = tested on: HOP-62 NSCLC
[16] = tested on: HOP-92 NSCLC
[17] = tested on: HS 578T breast
[18] = tested on: HT29 colon
[19] = tested on: IGROV1 ovarian
[20] = tested on: K-562 leukemia
[21] = tested on: KM12 colon
[22] = tested on: M14 melanoma
[23] = tested on: MALME-3M melanoma
[24] = tested on: MCF7 breast
[25] = tested on: MDA-MB-231 breast
[26] = tested on: MDA-MB-435
[27] = tested on: MOLT-4 leukemia
[28] = tested on: NCI-H226 lung
[29] = tested on: NCI-H23 lung
[30] = tested on: NCI-H460 lung
[31] = tested on: NCI-H522 lung
[32] = tested on: NCI/ADR-RES ovarian
[33] = tested on: OVCAR-4 ovarian
[34] = tested on: OVCAR-5 ovarian
[35] = tested on: OVCAR-8 ovarian
[36] = tested on: PC-3 prostate
[37] = tested on: RPMI-8226 leukemia
[38] = tested on: RXF 393 renal
[39] = tested on: SF-268 CNS
[40] = tested on: SF-295 CNS
[41] = tested on: SF-539 CNS
[42] = tested on: SK-MEL-2 melanoma
[43] = tested on: SK-MEL-28 melanoma
[44] = tested on: SK-MEL-5 melanoma
[45] = tested on: SK-OV-3 ovarian
[46] = tested on: SN12C renal
[47] = tested on: SNB-19 CNS
[48] = tested on: SNB-75 CNS
[49] = tested on: SR leukemia
[50] = tested on: SW-620 colon
[51] = tested on: T-47D breast
[52] = tested on: TK-10 renal
[53] = tested on: U251 CNS
[54] = tested on: UACC-257 melanoma
[55] = tested on: UACC-62 melanoma
[56] = tested on: UO-31 renal

## COc1ccc(Cn2cc3c(c2-c2cc(OC)c(OC)c(OC)c2)CCc2c(CN4CCCC4)noc2-3)cc1
[1]
  GI50: 0.997 µM
  TGI: 21.9 µM
[2]
  GI50: 0.78 µM
  TGI: 6.38 µM
[3]
  GI50: 1.33 µM
  TGI: > 100 µM
[4]
  GI50: 0.634 µM
  TGI: 36.5 µM
[5]
  GI50: 2.47 µM
  TGI: 14.3 µM
[6]
  GI50: 0.451 µM
  TGI: 20.2 µM
[7]
  GI50: 0.727 µM
  TGI: > 100 µM
[8]
  GI50: 0.941 µM
  TGI: 5.49 µM
[9]
  GI50: 4 µM
  TGI: > 100 µM
[10]
  GI50: 2.11 µM
  TGI: > 100 µM
[11]
  GI50: 1.84 µM
  TGI: 14.6 µM
[12]
  GI50: 0.466 µM
  TGI: 14.9 µM
[13]
  GI50: 0.475 µM
  TGI: 12.1 µM
[14]
  GI50: 0.317 µM
  TGI: 1.28 µM
[15]
  GI50: 1.41 µM
  TGI: 32.6 µM
[16]
  GI50: 1.35 µM
  TGI: 12 µM
[17]
  GI50: 1.8 µM
  TGI: 27.3 µM
[18]
  GI50: 0.398 µM
  TGI: 12.6 µM
[19]
  GI50: 0.892 µM
  TGI: > 100 µM
[20]
  GI50: 0.348 µM
  TGI: 16.6 µM
[21]
  GI50: 12.6 µM
  TGI: 81.2 µM
[22]
  GI50: 0.582 µM
  TGI: 10.6 µM
[23]
  GI50: 0.496 µM
  TGI: 21.4 µM
[24]
  GI50: 0.325 µM
  TGI: 20 µM
[25]
  GI50: 3.05 µM
  TGI: 15.2 µM
[26]
  GI50: 0.239 µM
  TGI: 0.595 µM
[27]
  GI50: 1.47 µM
  TGI: 32.8 µM
[28]
  GI50: 2.07 µM
  TGI: 30.3 µM
[29]
  GI50: 2.8 µM
  TGI: > 100 µM
[30]
  GI50: 0.566 µM
  TGI: 12.6 µM
[31]
  GI50: 0.472 µM
  TGI: 18.9 µM
[32]
  GI50: 0.55 µM
  TGI: 11.2 µM
[33]
  GI50: 21.4 µM
  TGI: > 100 µM
[34]
  GI50: 3.2 µM
  TGI: > 100 µM
[35]
  GI50: 3.27 µM
  TGI: 78.9 µM
[36]
  GI50: 0.636 µM
  TGI: > 100 µM
[37]
  GI50: 1.27 µM
  TGI: 9.04 µM
[38]
  GI50: 0.893 µM
  TGI: 7.96 µM
[39]
  GI50: 3.15 µM
  TGI: 29.8 µM
[40]
  GI50: 0.461 µM
  TGI: 12.4 µM
[41]
  GI50: 0.753 µM
  TGI: 4.46 µM
[42]
  GI50: 13.2 µM
  TGI: 41.4 µM
[43]
  GI50: 11.5 µM
  TGI: 29.6 µM
[44]
  GI50: 1.02 µM
  TGI: 11.9 µM
[45]
  GI50: 6.7 µM
  TGI: > 100 µM
[46]
  GI50: 4.43 µM
  TGI: 78 µM
[47]
  GI50: 0.78 µM
  TGI: > 100 µM
[48]
  GI50: 0.668 µM
  TGI: 4.83 µM
[49]
  GI50: 0.36 µM
  TGI: 13.5 µM
[50]
  GI50: 0.54 µM
  TGI: 80.3 µM
[51]
  GI50: 2.65 µM
  TGI: 48 µM
[52]
  GI50: 23.4 µM
  TGI: > 100 µM
[53]
  GI50: 0.543 µM
  TGI: 21.1 µM
[54]
  GI50: 17 µM
  TGI: 47.7 µM
[55]
  GI50: 0.545 µM
  TGI: 22.7 µM
[56]
  GI50: 1.16 µM
  TGI: 13.7 µM
